Patent US9149536B2, “Conjugated antimicrobial agents” (priority 2009, dated 2015)
In brackets after ≈: the same amount, converted by molar mass. Like-named read-outs stand apart in the source and are kept apart here.

Legend:
[1] = system: B. subtilis ATCC 6633; test: MIC, double-microdilution, B. subtilis ATCC 6633; type: cell-based; details: for MIC: Bacillus subtilis, ATCC6633
[2] = target: E. coli DNA gyrase (Escherichia coli, UniProt P0AES4+P0AES6); details: for IC50 fold superior than that of Cipro in DNA gyrase assay: general statements name DNA gyrase and TopoIV together; for IC50: read-out: DNA gyrase IC50
E. coli DNA gyrase, sequence (P0AES4 whole entry, one chain of several): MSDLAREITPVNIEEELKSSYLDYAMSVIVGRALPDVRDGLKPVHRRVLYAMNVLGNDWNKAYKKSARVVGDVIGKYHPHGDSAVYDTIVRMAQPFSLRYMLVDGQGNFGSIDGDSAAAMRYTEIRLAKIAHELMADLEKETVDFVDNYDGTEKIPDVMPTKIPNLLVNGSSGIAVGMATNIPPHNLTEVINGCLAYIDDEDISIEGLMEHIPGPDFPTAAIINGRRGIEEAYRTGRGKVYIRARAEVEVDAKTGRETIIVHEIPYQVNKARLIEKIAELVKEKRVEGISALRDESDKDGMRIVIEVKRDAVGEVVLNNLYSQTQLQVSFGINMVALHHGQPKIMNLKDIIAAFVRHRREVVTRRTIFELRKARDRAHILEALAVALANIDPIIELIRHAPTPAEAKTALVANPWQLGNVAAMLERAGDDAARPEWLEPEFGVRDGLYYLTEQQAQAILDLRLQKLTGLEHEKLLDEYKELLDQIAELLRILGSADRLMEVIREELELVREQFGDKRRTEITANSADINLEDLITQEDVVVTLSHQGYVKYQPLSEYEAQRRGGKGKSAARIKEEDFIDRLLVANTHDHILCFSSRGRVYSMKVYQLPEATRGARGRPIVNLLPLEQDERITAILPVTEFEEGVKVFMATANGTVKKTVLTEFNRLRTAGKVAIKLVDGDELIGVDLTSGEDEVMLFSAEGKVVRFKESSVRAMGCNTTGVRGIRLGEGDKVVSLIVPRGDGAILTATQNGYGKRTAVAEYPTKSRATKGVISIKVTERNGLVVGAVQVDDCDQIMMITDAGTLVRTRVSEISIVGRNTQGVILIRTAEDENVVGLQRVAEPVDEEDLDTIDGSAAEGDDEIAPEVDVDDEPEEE

[3] = system: E. coli R477-100; test: MIC, double-microdilution, E. coli R477-100; type: cell-based, Escherichia coli; details: for MIC: Escherichia coli; for MIC E. coli R477-100: Table 4
[4] = system: MRSA ATCC 43300; test: microbe, parasite or virus in culture; type: cell-based, S. aureus; details: for MIC: Staphylococcus aureus, read-out: MIC MRSA ATCC 43300
[5] = system: E. coli ATCC 25922; test: MIC, double-microdilution, E. coli ATCC 25922; type: cell-based, Escherichia coli; details: for MIC: Escherichia coli, ATCC25922
[6] = system: B. subtilis ATCC 6633; test: microbe, parasite or virus in culture; type: cell-based; details: for MIC: Bacillus subtilis
Procedure: (§1) In parallel, MIC evolution during these subcultures was compared concomitantly with each new generation, using bacteria harvested from control wells (wells cultured without antimicrobial agent from the previous generation). The relative MIC was calculated for each experiment from the ratio of MIC obtained for a given subculture to that obtained for first-time exposure.

[7] = system: E. coli ATCC 35218; test: microbe, parasite or virus in culture; type: cell-based; details: for MIC: Escherichia coli
Procedure: as §1

[8] = target: T1, E. coli TopoIV (Escherichia coli, UniProt P0AFI2+P20083); test: TopoIV relaxation assay; type: biochemical
T1 construct: purchased Inspiralis Ltd
T1 sequence (P0AFI2 whole entry): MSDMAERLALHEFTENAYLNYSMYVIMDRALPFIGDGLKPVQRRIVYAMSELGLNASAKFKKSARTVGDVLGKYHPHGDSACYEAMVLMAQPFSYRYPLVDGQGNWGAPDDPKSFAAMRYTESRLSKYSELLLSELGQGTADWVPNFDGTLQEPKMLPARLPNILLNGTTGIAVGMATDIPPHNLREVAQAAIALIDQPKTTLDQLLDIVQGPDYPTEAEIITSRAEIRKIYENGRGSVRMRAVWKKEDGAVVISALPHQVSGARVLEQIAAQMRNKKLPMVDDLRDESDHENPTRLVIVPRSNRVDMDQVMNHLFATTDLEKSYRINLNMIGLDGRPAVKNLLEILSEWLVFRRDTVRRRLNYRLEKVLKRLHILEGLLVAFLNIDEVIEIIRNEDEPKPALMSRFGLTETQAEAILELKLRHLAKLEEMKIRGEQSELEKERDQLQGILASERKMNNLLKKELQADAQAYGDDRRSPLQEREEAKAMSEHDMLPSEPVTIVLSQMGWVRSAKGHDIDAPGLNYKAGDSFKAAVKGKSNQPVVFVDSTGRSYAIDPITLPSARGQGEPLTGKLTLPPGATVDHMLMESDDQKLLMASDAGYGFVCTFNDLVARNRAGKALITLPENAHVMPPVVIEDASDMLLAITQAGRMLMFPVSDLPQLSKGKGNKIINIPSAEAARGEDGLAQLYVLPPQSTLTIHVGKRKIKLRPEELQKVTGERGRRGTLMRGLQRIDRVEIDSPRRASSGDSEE
T1 sequence (P20083 whole entry): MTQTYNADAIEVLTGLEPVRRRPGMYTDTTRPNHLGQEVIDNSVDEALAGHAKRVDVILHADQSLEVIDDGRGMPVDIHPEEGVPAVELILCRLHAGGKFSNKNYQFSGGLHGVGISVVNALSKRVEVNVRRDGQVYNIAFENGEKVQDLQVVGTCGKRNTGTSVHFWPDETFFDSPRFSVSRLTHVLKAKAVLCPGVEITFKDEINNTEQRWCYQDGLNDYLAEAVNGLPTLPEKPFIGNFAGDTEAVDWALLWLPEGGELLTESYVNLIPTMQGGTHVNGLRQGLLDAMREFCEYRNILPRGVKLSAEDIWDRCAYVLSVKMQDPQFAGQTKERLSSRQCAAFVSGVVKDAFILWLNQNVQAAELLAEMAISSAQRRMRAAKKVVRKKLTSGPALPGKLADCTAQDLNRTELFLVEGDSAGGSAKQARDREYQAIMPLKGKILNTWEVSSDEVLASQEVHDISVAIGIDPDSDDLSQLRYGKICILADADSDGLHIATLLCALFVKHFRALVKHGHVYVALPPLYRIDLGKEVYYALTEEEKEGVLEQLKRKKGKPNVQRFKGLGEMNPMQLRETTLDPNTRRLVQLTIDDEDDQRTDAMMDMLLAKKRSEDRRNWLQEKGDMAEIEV
Procedure: DNA relaxation activity was assayed with supercoiled pBR322 DNA as a substrate (Inspiralis Ltd) according to the manufacturer's protocol. The standard reaction mixture (20 μl) contained 40 mM HEPES-KOH pH 7.6, 100 mM potassium glutamate, 10 mM Mg(OAc)2, 10 mM dithiothreitol, 1 mM ATP, 50 μg/ml albumin, 5 ng/μl […] pBR322, and TopoIV protein. The reaction mixture was incubated at 37° C. for 30 minutes, and then was terminated by addition of 2 μl 0.5 M EDTA, 3.5 μl loading dye and 20 μl chloroform/isoamyl alcohol (24:1) mixture. […] One unit of relaxation activity was defined as the amount of TopoIV required to relax 0.1 μg of plasmid in 30 minutes.
(§2) Relaxation assays were conducted with E. coli TopoIV.

[9] = target: T2, APH(3′)-IIIa enzyme (Enterococcus faecalis, UniProt P0A3Y5); type: biochemical; details: compound as substrate of APH(3′)-IIIa
T2 construct: made in house; host or cells: E. coli BL21 carrying pETSACG1 (inferred)
T2 sequence (P0A3Y5 whole entry): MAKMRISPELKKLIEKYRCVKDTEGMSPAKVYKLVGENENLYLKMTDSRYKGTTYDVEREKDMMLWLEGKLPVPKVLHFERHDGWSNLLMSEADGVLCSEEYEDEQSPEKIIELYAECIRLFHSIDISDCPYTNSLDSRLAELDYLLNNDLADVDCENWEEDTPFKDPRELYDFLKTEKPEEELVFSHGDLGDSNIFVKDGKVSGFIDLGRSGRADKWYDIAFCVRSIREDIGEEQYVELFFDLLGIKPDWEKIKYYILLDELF

[10] = system: E. coli AG100A; test: MIC, double-microdilution, E. coli AG100A; type: cell-based, Escherichia coli; details: for MIC: Escherichia coli, AG100A; for MIC E. coli AG100A: Table 4
[11] = system: E. coli BL21/pETSACG1; test: microbe, parasite or virus in culture; type: cell-based; details: for MIC ratio BL21/pETSACG1 to BL21: MIC resistant strain divided by MIC background strain
Procedure: (§3) For this purpose, exemplary conjugates, according to some embodiments of the present invention, were tested against five isogenic E. coli strains. E. coli (pSF815) and E. coli (pET9d) are laboratory resistant strains derived by transformation of E. coli XL1 blue (background strain) with the pSF815 and pET9d plasmids, respectively. […] The last two isogenic strains used were E. coli BL21 (background strain) and E. coli (pETSACG1). […] These three enzymes are among the most prevalent modes of resistance found in aminoglycosides resistance strains.
(§4) The MIC ratios were calculated by dividing the MIC value against resistant strain to that against the respective background strain.

[12] = system: E. coli XL1 blue/pET9d; test: microbe, parasite or virus in culture; type: cell-based; details: for MIC ratio XL1 blue/pET9d to XL1 blue: MIC resistant strain divided by MIC background strain
Procedure: as §3, §4

[13] = system: E. coli XL1 blue; test: microbe, parasite or virus in culture; type: cell-based; details: background strain
Procedure: as §3, §4

[14] = system: E. coli BL21; test: microbe, parasite or virus in culture; type: cell-based; details: background strain
Procedure: as §3, §4

[15] = system: E. coli XL1 blue/pSF815; test: microbe, parasite or virus in culture; type: cell-based
Procedure: as §3, §4

[16] = system: E. coli AG100B; test: MIC, double-microdilution, E. coli AG100B; type: cell-based, Escherichia coli; details: for MIC: Escherichia coli, AG100B; for MIC E. coli AG100B: Table 4
From the text: AG100B and AG100A are two kanamycin resistant Escherichia coli strains expressing APH(3′)-I aminoglycoside resistance enzyme.

[17] = system: bacterial protein synthesis; test: In vitro coupled transcription/translation assay, E. coli S30 extract; type: biochemical; details: luciferase readout
Procedure: Protein translation inhibition by the different compounds was quantified in a coupled transcription/translation assay by using E. coli S30 extracts for circular DNA with the pBEST/uc plasmid (Promega), according to the manufacturer's protocol.
Translation reactions (25 μl) that contained variable concentrations of the tested compound were incubated at 37° C. for 60 minutes, cooled on ice for 5 minutes, and diluted with a dilution reagent (tris-phosphate buffer (25 mM, pH 7.8), DTT (2 mM), 1,2-diaminocyclohexanetetraacetate (2 mM), glycerol (10%), Triton X-100 (1%) and BSA (1 mg/ml)) into 96-well plates. The luminescence was measured immediately after the addition of the Luciferase Assay Reagent (50 μl; Promega), and the light emission was recorded with a Victor3™ Plate Reader (Perkin-Elmer). The concentration of half-maximal inhibition (IC50) was obtained from fitting concentration-response curves to the data of at least two independent experiments by using Grafit 5 software (Leatherbarrow, R. J. Erithacus Software Ltd: Horley, U.K., 2001).
as §2

[18] = Table 4, read-out: MIC B. subtilis ATCC 6633
[19] = supercoiling assay, relaxed pBR322
[20] = R477100, read-out: MIC E. coli R477-100
[21] = Table 4, read-out: MIC E. coli ATCC 25922
[22] = ATCC6633, read-out: MIC 15th passage, B.subtilis ATCC 6633
[23] = MIC of subculture to MIC upon first exposure
[24] = ATCC35218, read-out: MIC 15th passage, E.coli ATCC 35218
[25] = relaxation assay, supercoiled pBR322
[26] = read-out: MIC E. coli AG100B, Table 4, kanamycin resistant, APH(3′)-I

Structure (SMILES)	MIC [1, 18] [mg/L]	MIC [3, 20] [mg/L]	MIC [5, 21] [mg/L]	MIC [6, 22] [mg/L]	MIC [7, 24] [mg/L]	MIC ratio BL21/pETSACG1 to BL21 [11]	MIC ratio XL1 blue/pET9d to XL1 blue [12]	MIC [16, 26] [mg/L]	IC50 [17] [µM]	MIC B. subtilis ATCC 6633 ([1]; Table 4) [mg/L]	IC50 fold superior than that of Cipro in DNA gyrase assay [2] [fold]	IC50 [2, 19] [µM]	MIC E. coli R477-100 [3] [mg/L]	MIC MRSA ATCC 43300 ([4]; Table 4) [mg/L]	MIC E. coli ATCC 25922 ([5]; Table 4) [mg/L]	IC50 fold superior than Cipro in TopoIV assay [8] [fold]	IC50 [8, 25] [µM]	MIC E. coli AG100A ([10]; kanamycin resistant, APH(3′)-I) [mg/L]	MIC E. coli AG100B ([16]; kanamycin resistant, APH(3′)-I) [mg/L]	also measured
NC[C@@H]1O[C@H](O[C@H]2[C@@H](O)[C@H](O[C@@H]3[C@@H](O)[C@H](N)C[C@H](N)[C@H]3O[C@H]3O[C@H](CN)[C@@H](O)[C@H](O)[C@H]3N)O[C@@H]2CO)[C@H](N)[C@@H](O)[C@@H]1O [NeoB, neomycin B, reference compound]	1.5 (≈ 2.44 µM)	24 (≈ 39 µM)	48 (≈ 78.1 µM)	6 (≈ 9.76 µM)	48 (≈ 78.1 µM)	8	16	384 (≈ 625 µM)	10.5 ± 0.1											DNA gyrase IC50 [2, 19]: inactive; MIC [4]: 384 mg/L (≈ 625 µM); MIC ([6]; ATCC6633, read-out: MIC 1st passage, B.subtilis ATCC 6633): 0.75 mg/L (≈ 1.22 µM); Ratio (relative MIC) 15th/1st passage, B.subtilis ATCC 6633 [6, 23]: 8; MIC ([7]; ATCC35218, read-out: MIC 1st passage, E.coli ATCC 35218): 12 mg/L (≈ 19.5 µM); Ratio (relative MIC) 15th/1st passage, E.coli ATCC 35218 [7, 23]: 4; TopoIV IC50 [8, 25]: inactive; kcat [9]: 2.4 ± 0.1 s⁻¹; MIC ([10]; read-out: MIC E. coli AG100A, Table 4, kanamycin resistant, APH(3′)-I): 96 mg/L (≈ 156 µM); MIC ([11]; Escherichia coli, BL21/PETSACG1, read-out: MIC BL21/pETSACG1): 48 mg/L (≈ 78.1 µM); MIC ([12]; Escherichia coli, XL1BLUE/PET9D, read-out: MIC XL1 blue/pET9d): 96 mg/L (≈ 156 µM); MIC ([13]; Escherichia coli, XL1BLUE, read-out: MIC XL1 blue): 6 mg/L (≈ 9.76 µM); MIC ([14]; Escherichia coli, BL21): 6 mg/L (≈ 9.76 µM); MIC ([15]; Escherichia coli, XL1BLUE/PSF815, read-out: MIC XL1 blue/pSF815): > 384 mg/L
NCC1OC(OC2C(C(=O)Nc3ccc(-c4cn(CC(O)CN5CCN(c6cc7c(cc6F)c(=O)c(C(=O)O)cn7C6CC6)CC5)nn4)cc3)OC(OC3C(O)C(N)CC(N)C3OC3OC(CN)C(O)C(O)C3N)C2O)C(N)C(O)C1O (stereo not drawn) [Compound 1f, N-(4-(1-(2-hydroxy-3-(ciprofloxacin)propyl)-1H-1,2,3-triazol-4-yl)-5″-phenyl)neomycin carboxamide]									2.2 ± 0.6	6 (≈ 5.18 µM)	18	0.073 ± 0.005	6 (≈ 5.18 µM)	24 (≈ 20.7 µM)	3 (≈ 2.59 µM)	19	0.58 ± 0.04	0.75 (≈ 0.648 µM)	6 (≈ 5.18 µM)	
O=C(O)c1cn(C2CC2)c2cc(N3CCNCC3)c(F)cc2c1=O [Cipro, ciprofloxacin, reference compound]	0.02 (≈ 0.0604 µM)	0.02 (≈ 0.0604 µM)	0.02 (≈ 0.0604 µM)	0.75 (≈ 2.26 µM)	0.75 (≈ 2.26 µM)			0.05 (≈ 0.151 µM)						0.20 (≈ 0.604 µM)						MIC ([1]; Table 6, read-out: MIC Bacillus subtilis): 0.023 mg/L (≈ 0.0694 µM); MIC ([3]; R477100, read-out: MIC E. Coli R477-100): 0.023 mg/L (≈ 0.0694 µM); MIC ([4]; Table 4): 0.2 mg/L (≈ 0.604 µM); MIC ([5]; Table 6, read-out: MIC E. coli 25922): 0.023 mg/L (≈ 0.0694 µM); MIC ([10]; read-out: MIC E. coli AG100A, Table 6): < 0.003 mg/L; MIC ([16]; read-out: MIC E. coli AG100B, Table 6): 0.06 mg/L (≈ 0.181 µM); Protein synthesis IC50 [17]: inactive
NCC1OC(OC2C(COCc3cn(CCN4CCN(c5cc6c(cc5F)c(=O)c(C(=O)O)cn6C5CC5)CC4)nn3)OC(OC3C(O)C(N)CC(N)C3OC3OC(CN)C(O)C(O)C3N)C2O)C(N)C(O)C1O (stereo not drawn) [Compound 1q, 4-((5″-neomycinmethoxy)methyl)-1-(2-(ciprofloxacin)ethyl)-1H-1,2,3-triazole]						1	4		18.1 ± 4.9	0.75 (≈ 0.712 µM)	32	0.041 ± 0.009	3 (≈ 2.85 µM)	6 (≈ 5.7 µM)	3 (≈ 2.85 µM)	1.4	7.9 ± 0.25	0.38 (≈ 0.361 µM)	12 (≈ 11.4 µM)	fold more potent than NeoB against E. coli AG100A ([10]; from MIC): 253 fold; MIC BL21/pETSACG1 ([11]; expressed enzyme APH(3′)-IIIa): 0.2 μg/ml; MIC XL1 blue/pET9d ([12]; expressed enzyme APH(3′)-Ia): 12 μg/ml; MIC XL1 blue [13]: 3 mg/L (≈ 2.85 µM); MIC BL21 [14]: 0.2 mg/L (≈ 0.19 µM); MIC ratio XL1 blue/pSF815 to XL1 blue ([15]; MIC resistant strain divided by MIC background strain): 4; MIC XL1 blue/pSF815 ([15]; expressed enzyme AAC(6′)-APH(2″)): 12 μg/ml; fold more potent than NeoB against E. coli AG100B ([16]; from MIC): 32 fold
